# Like-named read-outs stand apart in the source and are kept apart here.
# Key:
# human serum protein = assay: Human serum protein binding by ultrafiltration; format: in vitro ADME; details: for Binding to human serum protein: 37 °C, ultrafiltration; for Serum albumin binding: abstract, serum species not stated
# Protocol: (§1) Serum protein binding of [^64Cu]1 and [^64Cu]2 was assessed following the previously reported method. Peptides [^64Cu]1 and [^64Cu]2 were evaluated by ultrafiltration using Centrifree Ultrafiltration devices (EMD) according to the manufacturer’s recommendations. Experiments were carried out in triplicate. The Centrifree Ultrafiltration devices were pretreated with PBS containing Tween 20 (5% v/v), followed by triplicate rinses with PBS. An aliquot of each peptide [^64Cu]1 or [^64Cu]2 in PBS (≤25 μL, 20–60 KBq) was thoroughly mixed with 0.5 mL of serum at 37 °C in a microfuge tube. The mixture was incubated at 37 °C for 5 min, and an aliquot (50 μL) was transferred to a tube for γ-counting. The remaining sample was transferred to a Centrifree Ultrafiltration device and centrifuged for 40 min at 1500 (RCF) at ambient temperature (20–24 °C). An aliquot (50 μL) of the filtrate was transferred to a tube for γ-counting. For each radiolabeled peptide, a blank was run using 0.5 mL PBS/Tween 20 (5% v/v) instead of serum (n = 3) to determine non-specific binding. Following γ-counting, the protein-bound radioactivity was calculated by subtracting the counts measured in the filtrate aliquot (i.e., not protein-bound) from the counts in the corresponding serum aliquot. The data are expressed as mean ± standard deviation of fraction of radioactivity bound to protein after subtraction of non-specific binding determined in the blank.
# [1] = Stability in mouse serum at 37 °C; format: in vitro ADME; details: for remaining at 1 h / remaining at 4 h / remaining at 24 h: mouse, mouse serum, read-out: Stability in mouse serum, % intact
# Protocol: For serum stability, mouse serum or human serum (0.5 mL, both purchased from Sigma-Aldrich) was combined with an aliquot of each of the peptides [^64Cu]1 and [^64Cu]2 (≤25 μL, 14.8–22.2 MBq) and incubated at 37 °C. At each time point (1, 4, and 24 h) an aliquot (50–200 μL) was taken, proteins precipitated with ethanol, and removed by pelleting at 1500 (RCF) for 4 min. The ethanol solution was diluted with water (1 mL) and analyzed by RP-HPLC as previously described.
# [2] = Blocking biodistribution with pre-administered metal free peptide; format: in vivo, mice; details: female, athymic nu/nu-nude, mouse, intravenous, total radioactivity, 4 h p.i., metal free peptide 10 min before, n = 1
# Protocol: For blocking studies, the metal free peptides 1 or 2 (~220 nmol, 1.3 mg in 100 μL PBS), respectively, were injected i.v. (n = 1/peptide) as described above 10 min prior to the injection of matching radiolabeled [^64Cu]1 or [^64Cu]2 (3.7–5.55 MBq, 100 μL PBS). After a conscious 4 h uptake period, the animals were anesthetized, sacrificed, tissues rapidly collected, and analyzed as described above. Decay-corrected radioactivity concentrations are expressed as a percentage of injected dose per gram of tissue (% ID/g) (Figure S23).
# mouse serum protein = assay: Mouse serum protein binding by ultrafiltration; format: in vitro ADME; details: 37 °C
# Protocol: as §1, with “For each radiolabeled peptide, a blank was run using 0.5 mL PBS/Tween 20 (5% v/v) instead of serum (n = 3) to determine non-specific binding.” left out
# [3] = BxPC-3 tumor, read-out: BxPC-3 Tumor uptake, blocked
# [4] = blood, read-out: Blood uptake, blocked
# [5] = bone, read-out: Bone uptake, blocked
# [6] = brain, read-out: Brain uptake, blocked
# [7] = gall bladder, read-out: Gall Bladder uptake, blocked
# [8] = heart, read-out: Heart uptake, blocked
# [9] = kidneys, read-out: Kidneys uptake, blocked
# [10] = large intestines, read-out: Lg. Intestines uptake, blocked
# [11] = liver, read-out: Liver uptake, blocked
# [12] = lung, read-out: Lung uptake, blocked
# [13] = muscle, read-out: Muscle uptake, blocked
# [14] = pancreas, read-out: Pancreas uptake, blocked
# [15] = skin, read-out: Skin uptake, blocked
# [16] = small intestines, read-out: Sm. Intestines uptake, blocked
# [17] = stomach, read-out: Stomach uptake, blocked
Structure (SMILES),Binding to human serum protein (human serum protein) [%],Serum albumin binding (human serum protein),remaining at 1 h [1] [%],remaining at 4 h [1] [%],remaining at 24 h ([1]; 24 h) [%],"tissue uptake at 4 h [2, 3] [%ID/g]","tissue uptake at 4 h [2, 4] [%ID/g]","tissue uptake at 4 h [2, 5] [%ID/g]","tissue uptake at 4 h [2, 6] [%ID/g]","tissue uptake at 4 h [2, 7] [%ID/g]","tissue uptake at 4 h [2, 8] [%ID/g]","tissue uptake at 4 h [2, 9] [%ID/g]","tissue uptake at 4 h [2, 10] [%ID/g]","tissue uptake at 4 h [2, 11] [%ID/g]","tissue uptake at 4 h [2, 12] [%ID/g]","tissue uptake at 4 h [2, 13] [%ID/g]","tissue uptake at 4 h [2, 14] [%ID/g]","tissue uptake at 4 h [2, 15] [%ID/g]","tissue uptake at 4 h [2, 16] [%ID/g]","tissue uptake at 4 h [2, 17] [%ID/g]",further results
"Cc1cc(-c2ccc(NC(=O)CCC(=O)NCCCC[C@H](NC(=O)CN3CCN(CC(=O)O)CCN(CC(=O)O)CCN(CC(=O)O)CC3)C(=O)NCCOCCOCCOCCOCCOCCOCCOCCOCCOCCOCCOCCOCCOCCOCCOCCOCCOCCOCCOCCOCCOCCOCCOCCOCCOCCOCCOCCOCCC(=O)N[C@@H](CC(N)=O)C(=O)N[C@@H](C)C(=O)N[C@H](C(=O)N3CCC[C@H]3C(=O)N[C@@H](CC(N)=O)C(=O)N[C@@H](CC(C)C)C(=O)N[C@@H](CCCNC(=N)N)C(=O)NCC(=O)N[C@@H](CC(=O)O)C(=O)N[C@@H](CC(C)C)C(=O)N[C@@H](CCC(N)=O)C(=O)N[C@H](C(=O)N[C@@H](CC(C)C)C(=O)N[C@@H](C)C(=O)N[C@@H](CCC(N)=O)C(=O)N[C@@H](CCCNC(=N)N)C(=O)N[C@H](C(=O)N[C@@H](C)C(=O)N[C@@H](CCCNC(=N)N)C(=O)N[C@H](C(=O)NCCOCCOCCOCCOCCOCCOCCOCCOCCOCCOCCOCCOCCOCCOCCOCCOCCOCCOCCOCCOCCOCCOCCOCCOCCOCCOCCOCCOCCC(N)=O)[C@@H](C)O)C(C)C)C(C)C)C(C)C)c(C)c2)ccc1N=Nc1ccc2c(S(=O)(=O)O)cc(S(=O)(=O)O)c(N)c2c1O [[^64Cu]1, [^64Cu]Cu DOTA-EB-αvβ6-BP, metal not drawn]",53.4 ± 0.9,53–63%,78,58,14,2.91,2.56,0.43,0.07,1.96,0.96,71.6,0.9,1.92,1.65,0.41,0.39,1.12,0.91,0.72,"tissue uptake at 4 h ([2]; spleen, read-out: Spleen uptake, blocked): 0.85 %ID/g; Binding to mouse serum protein (mouse serum protein): 41.9 ± 1.1%"
"CC(C)C[C@H](NC(=O)[C@H](CC(=O)O)NC(=O)CNC(=O)[C@H](CCCNC(=N)N)NC(=O)[C@H](CC(C)C)NC(=O)[C@H](CC(N)=O)NC(=O)[C@@H]1CCCN1C(=O)[C@@H](NC(=O)[C@H](C)NC(=O)[C@H](CC(N)=O)NC(=O)CCOCCOCCOCCOCCOCCOCCOCCOCCOCCOCCOCCOCCOCCOCCOCCOCCOCCOCCOCCOCCOCCOCCOCCOCCOCCOCCOCCOCCNC(=O)[C@H](CCCCNC(=O)[C@H](CC(=O)O)NC(=O)CCCNC(=O)CCCc1ccc(I)cc1)NC(=O)CN1CCN(CC(=O)O)CCN(CC(=O)O)CCN(CC(=O)O)CC1)C(C)C)C(=O)N[C@@H](CCC(N)=O)C(=O)N[C@H](C(=O)N[C@@H](CC(C)C)C(=O)N[C@@H](C)C(=O)N[C@@H](CCC(N)=O)C(=O)N[C@@H](CCCNC(=N)N)C(=O)N[C@H](C(=O)N[C@@H](C)C(=O)N[C@@H](CCCNC(=N)N)C(=O)N[C@H](C(=O)NCCOCCOCCOCCOCCOCCOCCOCCOCCOCCOCCOCCOCCOCCOCCOCCOCCOCCOCCOCCOCCOCCOCCOCCOCCOCCOCCOCCOCCC(N)=O)[C@@H](C)O)C(C)C)C(C)C [[^64Cu]2, [^64Cu]Cu DOTA-IP-αvβ6-BP, metal not drawn]",63.3 ± 1.5,42–44%,92,83,48,2.89,3.98,0.5,0.09,1.64,1.31,16.8,1.26,2.04,2.08,0.5,0.76,1.26,1.18,1.2,Fold higher stability than [64Cu]1 in mouse serum ([1]; 24 h): 3.4 fold; Binding to mouse serum protein (mouse serum protein): 44.0 ± 0.1%

# Source: paper PMC9025560, “A Comparison of Evans Blue and 4-(p-Iodophenyl)butyryl Albumin Binding Moieties on an Integrin αvβ6 Binding Peptide” (Pharmaceutics, 2022)
